In ChEMBL document CHEMBL5291721, “A preclinical secondary pharmacology resource illuminates target-adverse drug reaction associations of marketed drugs” (Nat Commun, 2023):

How the values were obtained:
Cannabinoid receptor 1 [1] = target: T1, Cannabinoid receptor 1 (Homo sapiens, UniProt P21554)
[2] = target: Beta-2 adrenergic receptor (Homo sapiens, UniProt P07550)
Melanocortin receptor 4 = Melanocortin receptor 4 (Homo sapiens, UniProt P32245)
[3] = target: Muscarinic acetylcholine receptor M3 (Homo sapiens, UniProt P20309)
Cannabinoid receptor 1 [4] = target: T1, Cannabinoid receptor 1; format: functional, cell-based
[5] = target: T2, Alpha-2B adrenergic receptor (Homo sapiens, UniProt P18089)
T2 sequence (P18089 whole entry): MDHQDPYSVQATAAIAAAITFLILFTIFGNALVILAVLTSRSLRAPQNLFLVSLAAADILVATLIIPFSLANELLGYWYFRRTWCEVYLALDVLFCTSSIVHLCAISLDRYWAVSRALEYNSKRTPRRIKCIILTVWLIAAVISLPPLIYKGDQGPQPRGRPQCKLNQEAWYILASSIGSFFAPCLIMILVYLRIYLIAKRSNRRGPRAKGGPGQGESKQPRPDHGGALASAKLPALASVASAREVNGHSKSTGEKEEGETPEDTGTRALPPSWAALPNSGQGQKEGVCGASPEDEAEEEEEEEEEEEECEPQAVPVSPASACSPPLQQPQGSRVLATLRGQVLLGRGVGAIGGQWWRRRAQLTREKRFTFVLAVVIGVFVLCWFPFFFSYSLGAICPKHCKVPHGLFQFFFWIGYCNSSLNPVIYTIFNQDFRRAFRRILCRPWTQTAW

[6] = target: T3, Cholecystokinin receptor type A (Homo sapiens, UniProt P32238)
T3 sequence (P32238 whole entry): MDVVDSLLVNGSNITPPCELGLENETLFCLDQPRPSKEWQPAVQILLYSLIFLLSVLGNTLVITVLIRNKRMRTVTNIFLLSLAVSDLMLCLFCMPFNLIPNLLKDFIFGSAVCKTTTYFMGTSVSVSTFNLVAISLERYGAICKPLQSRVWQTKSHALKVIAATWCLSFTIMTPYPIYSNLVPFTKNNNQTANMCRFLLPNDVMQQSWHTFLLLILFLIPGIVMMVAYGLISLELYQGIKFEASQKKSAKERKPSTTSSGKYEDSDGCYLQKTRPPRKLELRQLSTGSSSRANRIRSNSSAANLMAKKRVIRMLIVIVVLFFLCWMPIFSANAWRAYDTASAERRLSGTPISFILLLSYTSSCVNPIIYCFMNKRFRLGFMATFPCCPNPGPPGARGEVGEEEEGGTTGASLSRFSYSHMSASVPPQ

[7] = target: T4, Muscarinic acetylcholine receptor M1 (Homo sapiens, UniProt P11229); format: functional
T4 sequence (P11229 whole entry): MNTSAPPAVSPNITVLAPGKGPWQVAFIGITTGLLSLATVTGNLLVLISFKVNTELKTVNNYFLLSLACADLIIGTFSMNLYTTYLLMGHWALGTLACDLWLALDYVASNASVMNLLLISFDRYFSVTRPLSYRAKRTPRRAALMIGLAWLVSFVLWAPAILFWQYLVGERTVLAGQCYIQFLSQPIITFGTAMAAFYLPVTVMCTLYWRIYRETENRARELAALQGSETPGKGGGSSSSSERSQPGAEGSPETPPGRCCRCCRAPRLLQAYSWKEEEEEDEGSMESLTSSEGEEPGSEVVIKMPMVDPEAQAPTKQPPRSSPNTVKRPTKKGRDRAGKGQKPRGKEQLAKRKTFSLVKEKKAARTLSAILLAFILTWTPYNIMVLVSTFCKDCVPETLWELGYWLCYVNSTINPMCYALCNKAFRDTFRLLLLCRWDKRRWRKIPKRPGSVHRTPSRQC

Adenosine receptor A1 = target: T5, Adenosine receptor A1 (Homo sapiens, UniProt P30542)
T5 sequence (P30542 whole entry): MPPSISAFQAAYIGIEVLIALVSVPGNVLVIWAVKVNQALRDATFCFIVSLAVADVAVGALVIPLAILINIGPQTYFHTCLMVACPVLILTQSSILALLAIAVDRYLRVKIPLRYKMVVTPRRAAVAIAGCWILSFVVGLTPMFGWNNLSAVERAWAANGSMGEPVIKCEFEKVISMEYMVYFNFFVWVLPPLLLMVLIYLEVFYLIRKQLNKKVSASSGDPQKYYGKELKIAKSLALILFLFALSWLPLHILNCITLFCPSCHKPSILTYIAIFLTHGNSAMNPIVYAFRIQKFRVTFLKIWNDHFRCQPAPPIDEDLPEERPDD

[8] = target: T6, Alpha-1A adrenergic receptor (Homo sapiens, UniProt P35348); format: functional, cell-based
T6 sequence (P35348 whole entry): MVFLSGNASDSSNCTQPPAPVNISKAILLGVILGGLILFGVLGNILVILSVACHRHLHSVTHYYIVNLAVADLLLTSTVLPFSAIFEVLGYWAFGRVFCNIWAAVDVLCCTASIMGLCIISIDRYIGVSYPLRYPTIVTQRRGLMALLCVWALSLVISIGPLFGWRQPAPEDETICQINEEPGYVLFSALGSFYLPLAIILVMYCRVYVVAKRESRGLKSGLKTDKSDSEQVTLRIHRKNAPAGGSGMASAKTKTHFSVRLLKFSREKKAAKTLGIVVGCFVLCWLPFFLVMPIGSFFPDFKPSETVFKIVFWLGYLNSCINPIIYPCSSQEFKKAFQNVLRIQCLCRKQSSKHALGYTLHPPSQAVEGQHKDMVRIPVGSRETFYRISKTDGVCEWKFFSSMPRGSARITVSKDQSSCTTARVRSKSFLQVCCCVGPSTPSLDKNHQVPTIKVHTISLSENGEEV

B2 bradykinin receptor = target: T7, B2 bradykinin receptor (Homo sapiens, UniProt P30411)
T7 sequence (P30411 whole entry): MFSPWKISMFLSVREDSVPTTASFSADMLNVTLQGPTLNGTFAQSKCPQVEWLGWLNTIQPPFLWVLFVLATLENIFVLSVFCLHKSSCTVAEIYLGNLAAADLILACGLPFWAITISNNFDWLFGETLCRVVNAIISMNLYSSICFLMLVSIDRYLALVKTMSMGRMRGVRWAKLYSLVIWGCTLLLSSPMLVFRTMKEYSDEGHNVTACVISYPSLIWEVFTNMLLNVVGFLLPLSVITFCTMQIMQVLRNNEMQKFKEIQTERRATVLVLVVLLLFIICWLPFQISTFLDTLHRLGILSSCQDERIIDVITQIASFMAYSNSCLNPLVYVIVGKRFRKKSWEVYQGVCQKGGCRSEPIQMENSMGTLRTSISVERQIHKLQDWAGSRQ

Mu-type opioid receptor = Mu-type opioid receptor (Homo sapiens, UniProt P35372)
Also: assay procedure not described here.

T1 sequence (P21554 whole entry): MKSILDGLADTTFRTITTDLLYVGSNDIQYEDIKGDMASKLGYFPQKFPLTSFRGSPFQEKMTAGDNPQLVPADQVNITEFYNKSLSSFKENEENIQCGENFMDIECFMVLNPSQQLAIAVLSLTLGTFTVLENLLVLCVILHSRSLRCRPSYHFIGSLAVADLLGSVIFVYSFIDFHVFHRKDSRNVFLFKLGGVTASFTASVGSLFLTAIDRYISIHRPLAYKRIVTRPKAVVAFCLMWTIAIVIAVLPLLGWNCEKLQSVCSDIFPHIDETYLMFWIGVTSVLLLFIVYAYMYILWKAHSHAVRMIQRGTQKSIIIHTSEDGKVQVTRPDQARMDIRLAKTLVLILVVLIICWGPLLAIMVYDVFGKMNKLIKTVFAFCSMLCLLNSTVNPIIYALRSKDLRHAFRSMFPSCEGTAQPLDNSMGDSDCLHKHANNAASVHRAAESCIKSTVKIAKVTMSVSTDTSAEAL
Sequence of Melanocortin receptor 4 (P32245 whole entry): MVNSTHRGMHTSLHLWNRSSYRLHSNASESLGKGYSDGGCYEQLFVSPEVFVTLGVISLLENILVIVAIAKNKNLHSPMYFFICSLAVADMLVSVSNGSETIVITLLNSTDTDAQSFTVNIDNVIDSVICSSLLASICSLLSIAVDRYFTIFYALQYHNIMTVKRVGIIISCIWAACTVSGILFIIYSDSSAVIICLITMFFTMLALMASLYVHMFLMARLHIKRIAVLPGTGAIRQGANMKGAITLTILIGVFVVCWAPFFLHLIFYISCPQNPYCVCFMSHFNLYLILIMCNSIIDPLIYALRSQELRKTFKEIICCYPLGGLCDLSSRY
Sequence of Muscarinic acetylcholine receptor M3 (P20309 whole entry): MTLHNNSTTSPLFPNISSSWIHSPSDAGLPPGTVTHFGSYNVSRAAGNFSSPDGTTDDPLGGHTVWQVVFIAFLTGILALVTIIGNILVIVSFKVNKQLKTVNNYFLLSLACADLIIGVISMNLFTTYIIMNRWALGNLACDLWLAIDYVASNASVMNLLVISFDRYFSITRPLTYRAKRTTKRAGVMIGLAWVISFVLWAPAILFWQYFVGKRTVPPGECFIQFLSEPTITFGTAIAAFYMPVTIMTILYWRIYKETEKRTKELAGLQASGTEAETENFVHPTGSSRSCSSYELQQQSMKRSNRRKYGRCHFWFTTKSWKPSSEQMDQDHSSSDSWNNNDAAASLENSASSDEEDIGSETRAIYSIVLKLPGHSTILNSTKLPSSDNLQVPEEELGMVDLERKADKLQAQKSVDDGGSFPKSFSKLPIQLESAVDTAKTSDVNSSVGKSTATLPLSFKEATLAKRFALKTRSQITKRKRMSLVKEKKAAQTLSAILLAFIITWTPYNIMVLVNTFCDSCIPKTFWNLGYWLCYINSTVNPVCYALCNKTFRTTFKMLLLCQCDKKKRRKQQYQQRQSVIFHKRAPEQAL
Sequence of Beta-2 adrenergic receptor (P07550 whole entry): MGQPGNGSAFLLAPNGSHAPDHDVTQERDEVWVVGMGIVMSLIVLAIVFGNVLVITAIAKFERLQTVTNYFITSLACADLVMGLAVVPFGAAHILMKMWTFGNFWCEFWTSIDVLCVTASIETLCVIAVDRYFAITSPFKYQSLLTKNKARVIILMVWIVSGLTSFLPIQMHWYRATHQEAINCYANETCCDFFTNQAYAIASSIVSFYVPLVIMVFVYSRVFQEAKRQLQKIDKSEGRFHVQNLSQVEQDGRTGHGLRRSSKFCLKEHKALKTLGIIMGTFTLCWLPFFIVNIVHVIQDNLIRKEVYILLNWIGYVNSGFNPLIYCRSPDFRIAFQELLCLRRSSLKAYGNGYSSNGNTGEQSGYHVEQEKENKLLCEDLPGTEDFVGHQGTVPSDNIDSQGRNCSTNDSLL
Sequence of Mu-type opioid receptor (P35372 whole entry): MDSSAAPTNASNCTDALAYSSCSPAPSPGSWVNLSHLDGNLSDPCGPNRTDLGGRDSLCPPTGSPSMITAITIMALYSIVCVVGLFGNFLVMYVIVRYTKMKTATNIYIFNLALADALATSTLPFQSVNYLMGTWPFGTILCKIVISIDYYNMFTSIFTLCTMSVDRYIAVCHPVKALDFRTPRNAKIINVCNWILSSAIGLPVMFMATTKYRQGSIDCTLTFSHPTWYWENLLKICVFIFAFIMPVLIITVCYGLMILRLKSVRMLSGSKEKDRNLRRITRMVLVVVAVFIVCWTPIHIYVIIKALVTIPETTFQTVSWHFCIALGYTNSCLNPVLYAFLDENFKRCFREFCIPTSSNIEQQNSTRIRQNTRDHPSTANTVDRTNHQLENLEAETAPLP

Compound	AC50 (Cannabinoid receptor 1 [1])	AC50 [2]	AC50 (Melanocortin receptor 4)	AC50 [3]	AC50 (Cannabinoid receptor 1 [4])	AC50 [5]	AC50 [6]	AC50 [7]	AC50 (Adenosine receptor A1)	AC50 [8]	AC50 (B2 bradykinin receptor)	AC50 (Mu-type opioid receptor)
CC(=O)c1ccc(S(=O)(=O)NC(=O)NC2CCCCC2)cc1 [ACETOHEXAMIDE]	> 10 µM	> 10 µM	> 10 µM	> 30 µM	> 30 µM	> 10 µM	> 10 µM	> 10 µM	> 10 µM	> 30 µM	> 10 µM	> 30 µM
COc1cc(C)c(/C=C/C(C)=C/C=C/C(C)=C/C(=O)O)c(C)c1C [ACITRETIN]	> 10 µM	> 10 µM	> 10 µM	> 30 µM	> 30 µM	> 10 µM	> 10 µM	> 10 µM	> 10 µM	> 30 µM	> 10 µM	> 30 µM
CC(CN(C)C)C(C)(O)Cc1ccc(Cl)cc1 (stereo not drawn) [CLOBUTINOL]	> 10 µM	> 30 µM	> 30 µM	> 30 µM	> 30 µM	> 10 µM	> 30 µM	> 10 µM	> 30 µM	> 30 µM	> 30 µM	> 30 µM
CCCCOc1ccc(C(=O)CCN2CCCCC2)cc1 [DYCLONINE]	> 10 µM	> 10 µM	> 30 µM	> 10 µM	> 30 µM	> 10 µM	> 30 µM	> 10 µM	> 30 µM	> 30 µM	> 30 µM	> 10 µM
CCC(=O)O[C@](Cc1ccccc1)(c1ccccc1)[C@H](C)CN(C)C [PROPOXYPHENE]	> 10 µM	> 10 µM	> 30 µM	16 µM	> 30 µM	> 10 µM	> 30 µM	> 10 µM	> 30 µM	> 30 µM	> 30 µM	0.693 µM
CCc1nc(N)nc(N)c1-c1ccc(Cl)cc1 [PYRIMETHAMINE]	> 10 µM	> 10 µM	> 10 µM	> 30 µM	> 30 µM	> 10 µM	> 10 µM	> 30 µM	> 10 µM	> 30 µM	> 10 µM	> 30 µM
CCOC(=O)c1ccc(C#Cc2ccc3c(c2)C(C)(C)CCS3)nc1 [TAZAROTENE]	> 10 µM	> 10 µM	> 30 µM	> 30 µM		> 10 µM	> 30 µM	> 10 µM	> 30 µM	> 30 µM	> 30 µM	> 30 µM
